The results in this text go back to US20210115040A1, “OGA INHIBITOR COMPOUNDS” (Janssen Pharmaceutica NV, priority 2018, published 2021).

The test has as its target T1, recombinant human Meningioma Expressed Antigen 5 (MGEA5), also referred to as O-GlcNAcase (OGA) (Homo sapiens, UniProt O60502).
T1 construct: Full length OGA enzyme was purchased at OriGene (cat #TP322411); purchased OriGene TP322411
T1 sequence (O60502 1-916): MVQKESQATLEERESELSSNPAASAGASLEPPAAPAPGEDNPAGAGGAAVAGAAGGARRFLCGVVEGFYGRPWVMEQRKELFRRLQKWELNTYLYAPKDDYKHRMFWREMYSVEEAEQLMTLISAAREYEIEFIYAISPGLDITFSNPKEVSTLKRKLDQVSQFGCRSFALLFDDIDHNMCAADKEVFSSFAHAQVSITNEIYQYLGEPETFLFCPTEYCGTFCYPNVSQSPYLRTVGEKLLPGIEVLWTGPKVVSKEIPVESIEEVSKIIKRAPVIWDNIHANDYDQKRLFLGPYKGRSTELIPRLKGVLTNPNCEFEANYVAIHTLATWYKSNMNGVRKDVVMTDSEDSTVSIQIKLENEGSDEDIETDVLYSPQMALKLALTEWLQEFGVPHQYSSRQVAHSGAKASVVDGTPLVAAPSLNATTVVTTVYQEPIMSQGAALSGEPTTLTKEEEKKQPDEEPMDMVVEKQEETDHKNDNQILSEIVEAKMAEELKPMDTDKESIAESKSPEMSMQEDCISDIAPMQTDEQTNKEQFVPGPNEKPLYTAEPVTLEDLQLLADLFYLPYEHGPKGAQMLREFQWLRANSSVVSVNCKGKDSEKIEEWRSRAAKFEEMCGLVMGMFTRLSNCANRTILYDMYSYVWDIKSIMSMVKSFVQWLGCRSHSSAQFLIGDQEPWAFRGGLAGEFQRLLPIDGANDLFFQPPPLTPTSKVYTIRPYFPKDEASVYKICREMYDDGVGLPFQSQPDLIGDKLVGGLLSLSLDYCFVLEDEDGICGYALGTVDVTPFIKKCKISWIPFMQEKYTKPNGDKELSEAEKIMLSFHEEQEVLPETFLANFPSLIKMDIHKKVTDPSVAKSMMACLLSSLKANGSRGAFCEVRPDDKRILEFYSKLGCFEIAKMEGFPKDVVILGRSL
The test can be described thus: OGA biochemical assay (inhibition of FM-GlcNAc hydrolysis, fluorescence). As to conditions: FM-GlcNAc substrate. In a few lines:
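Full-length OGA (2 nM) pre-incubated 60 min at room temperature with compound, then FM-GlcNAc (100 uM final) hydrolysed 6 h at room temperature in 200 mM citrate/phosphate pH 7.2 with 0.005% Tween-20. Stopped with carbonate pH 11.0; fluorescein read at ex 485/em 538 nm. IC50 and Hill coefficient from curve fit between no-inhibitor and saturating-standard controls.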

Regarding `Cc1cc(C2CCCN(C(C)c3ccc4sc(C)nc4n3)C2)cc(C)n1` (racemic) [Compound 39], where the note is “6 h at room temperature, read-out: Enzymatic hOGA, pIC50 (converted)”, the IC50 is 12.6 nM. Also, the maximum response (Emax) (maximal effect, read-out: Enzymatic Emax (%)) stood at 99%.

A word on the Emax: it is the greatest response seen or fitted, relative to the assay's reference.
